# Structures can show the parent of a compound that is named as a salt. Where two headings read alike, the source gives them in different places.
# What was measured:
# MAO-B = biological target: T1, MAO-B (Mus musculus, UniProt Q8BW75); assay: Inhibition of MAO activity ex vivo (brain); type: in vivo, mice; conditions: mice, brain tissue
# T1 construct: from tissue; host or cells: mouse brain
# T1 sequence (Q8BW75 1-520): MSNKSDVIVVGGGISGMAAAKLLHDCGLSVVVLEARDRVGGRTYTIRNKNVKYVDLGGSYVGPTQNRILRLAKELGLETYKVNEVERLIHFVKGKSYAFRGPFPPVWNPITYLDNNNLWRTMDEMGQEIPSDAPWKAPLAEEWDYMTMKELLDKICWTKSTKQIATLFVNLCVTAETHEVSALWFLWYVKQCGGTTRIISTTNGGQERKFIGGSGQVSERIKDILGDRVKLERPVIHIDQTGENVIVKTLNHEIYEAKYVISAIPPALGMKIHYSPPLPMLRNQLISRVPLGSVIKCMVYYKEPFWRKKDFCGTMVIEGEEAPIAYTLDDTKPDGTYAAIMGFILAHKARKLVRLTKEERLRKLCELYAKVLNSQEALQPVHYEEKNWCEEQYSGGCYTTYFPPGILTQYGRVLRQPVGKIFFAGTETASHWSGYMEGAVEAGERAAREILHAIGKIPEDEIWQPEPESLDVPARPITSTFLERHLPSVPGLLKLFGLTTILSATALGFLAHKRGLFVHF
# Protocol: (§1) Substrate concentrations used were 50 μM (PEA) and 1 mM (5-HT).
# (§2) Male Sabra mice, weighing 45-50 g were injected with test compound solutions (prepared in 0.9% saline). Each dose was administered to two or three mice. The mice were sacrificed two hours after drug administration or at a time corresponding to the peak AChE inhibition time (see Table 11). The brain and liver were rapidly dissected and stored in appropriate vials on ice. The tissues were weighed, diluted to ½ in sucrose 0.3M and stored at −20° C. before performance of the MAO assay described above. The results given in Table 11 relate to measurements made on brain tissue only.
# MAO-A [1] = biological target: T2, MAO-A (Mus musculus, UniProt Q64133); assay: Inhibition of MAO activity ex vivo (brain); type: in vivo, mice; conditions: mice, brain tissue
# T2 construct: from tissue; host or cells: mouse brain
# T2 sequence (Q64133 1-526): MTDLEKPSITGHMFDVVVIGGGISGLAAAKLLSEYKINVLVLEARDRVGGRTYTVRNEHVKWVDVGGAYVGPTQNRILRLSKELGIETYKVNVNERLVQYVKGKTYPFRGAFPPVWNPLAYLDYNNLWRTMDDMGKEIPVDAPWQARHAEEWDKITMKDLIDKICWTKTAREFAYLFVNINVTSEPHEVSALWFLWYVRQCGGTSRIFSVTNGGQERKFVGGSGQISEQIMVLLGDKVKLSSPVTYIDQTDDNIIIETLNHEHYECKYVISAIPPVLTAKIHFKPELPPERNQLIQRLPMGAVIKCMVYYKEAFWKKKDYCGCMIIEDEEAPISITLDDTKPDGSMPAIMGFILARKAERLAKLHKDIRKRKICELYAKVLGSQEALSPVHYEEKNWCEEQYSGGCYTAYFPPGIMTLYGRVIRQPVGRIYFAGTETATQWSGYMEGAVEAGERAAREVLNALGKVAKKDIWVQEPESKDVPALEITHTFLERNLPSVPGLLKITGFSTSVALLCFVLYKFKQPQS
# Protocol: as §1, §2
# [2] = biological target: T3, Human erythrocyte acetylcholinesterase (Homo sapiens, UniProt P22303); assay: biochemical; type: biochemical
# T3 construct: Human erythrocyte acetylcholinesterase (type XIII, Sigma Israel); purchased Sigma Israel type XIII; host or cells: human erythrocytes
# Protocol: Human erythrocyte acetylcholinesterase (type XIII, Sigma Israel), was prepared in a stock solution of 1 U/ml, containing Triton (1%) and bovine serum albumin (0.05%) in phosphate buffer (pH 8). The enzyme (0.05U) was incubated with 3-5 different concentrations of test compound (in triplicate) for periods of from 15 to 60 minutes at 37° C. […] The percentage inhibition of AChE by each concentration of drug is calculated by comparison with that of enzyme in the absence of drug.
# MAO-A [3] = biological target: T4, MAO-A (Rattus norvegicus, UniProt P21396); assay: Inhibition of MAO activity in vitro, 5-HT as substrate; type: biochemical; design: The MAO enzyme source was a homogenate of rat brain in 0.3M sucrose; from tissue; host or cells: rat brain homogenate, 600 g supernatant; conditions: 5-HT substrate
# T4 sequence (P21396 1-526): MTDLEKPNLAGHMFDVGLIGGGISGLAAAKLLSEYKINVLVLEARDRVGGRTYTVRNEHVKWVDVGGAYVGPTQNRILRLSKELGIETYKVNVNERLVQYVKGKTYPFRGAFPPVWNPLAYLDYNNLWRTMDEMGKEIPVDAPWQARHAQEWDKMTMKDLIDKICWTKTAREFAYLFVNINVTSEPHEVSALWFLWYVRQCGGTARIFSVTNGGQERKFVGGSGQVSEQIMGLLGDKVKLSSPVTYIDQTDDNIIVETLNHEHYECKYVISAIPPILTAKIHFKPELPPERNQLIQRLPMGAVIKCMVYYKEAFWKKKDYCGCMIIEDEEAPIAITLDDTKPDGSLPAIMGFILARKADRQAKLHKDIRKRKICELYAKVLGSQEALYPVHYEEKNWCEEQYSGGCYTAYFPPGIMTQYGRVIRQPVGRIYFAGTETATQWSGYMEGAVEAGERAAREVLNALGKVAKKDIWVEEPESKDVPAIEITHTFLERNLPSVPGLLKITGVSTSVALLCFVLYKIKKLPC
# Protocol: as §1
# whole brain AChE = biological target: T5, whole brain AChE (Mus musculus, UniProt P21836); conditions: for AChE Inhibition Ex vivo ED50 (AC): mice, whole brain, at peak of activity
# T5 sequence (P21836 32-614): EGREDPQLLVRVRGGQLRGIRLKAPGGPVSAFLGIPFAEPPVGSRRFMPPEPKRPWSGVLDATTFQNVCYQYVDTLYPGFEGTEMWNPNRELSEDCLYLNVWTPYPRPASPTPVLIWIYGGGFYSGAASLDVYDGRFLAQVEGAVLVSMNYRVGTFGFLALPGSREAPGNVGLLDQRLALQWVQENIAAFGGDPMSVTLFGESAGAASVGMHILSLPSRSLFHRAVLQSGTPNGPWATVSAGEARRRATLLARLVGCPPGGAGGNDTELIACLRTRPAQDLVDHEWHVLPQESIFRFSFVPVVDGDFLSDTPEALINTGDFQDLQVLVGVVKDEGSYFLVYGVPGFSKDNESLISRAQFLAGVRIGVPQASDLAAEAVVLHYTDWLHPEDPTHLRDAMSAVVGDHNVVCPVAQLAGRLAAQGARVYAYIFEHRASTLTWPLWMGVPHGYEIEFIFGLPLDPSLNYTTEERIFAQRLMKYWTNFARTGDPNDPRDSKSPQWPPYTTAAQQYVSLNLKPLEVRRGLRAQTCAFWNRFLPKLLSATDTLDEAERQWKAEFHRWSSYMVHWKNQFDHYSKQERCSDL
# mice = conditions: mice, within 6 hours after administration
# Protocol: Therapeutic Ratio was calculated as LD50 divided by ED50 of ex vivo acetylcholine esterase inhibition.
# [4] = system: mice, hypobaric hypoxic model; assay: animal or person; type: in vivo; conditions: for response vs control in vivo at 0.2 mg/kg: 0.2 mg/kg sc
# Excerpt: A 12 liter desiccator (desiccator A) and a 2.5 liter desiccator (desiccator B) were separately connected to a vacuum pump. Desiccator B was disconnected and allowed to equilibrate with room air whilst desiccator A was evacuated to a pressure of 100 mmHg. Four male ICR albino mice (22-28 g) were placed in desiccator B. Desiccator B was then closed to room air and connected to desiccator A. The pressure inside desiccator B was monitored using a mercury manometer and at the point were the pressure in desiccator B reached 200 mmpg (usually within 14 seconds), the two desiccators were disconnected from the vacuum pump and the pump switched off. The survival time from the moment of induction of hypoxia to the time of cessation of respiration was recorded for each mouse for a maximum of 15 minutes after which time room air was reintroduced to desiccator B. Survivors were monitored for signs of lethargy or vitality.
# Effect of drug treatment was assessed as the percent of the survival time of the drug treated group with respect to the saline injected or vehicle injected control group. […] The effect of each dose of test drug was determined in duplicate i.e. two groups of 4 mice.
# Positive reference drugs were sodium pentobarbital at a dose of 40 mg/kg, and diazepam 10 mg/kg given 0.5 h prior to hypoxia, physostigmine 0.2 and 0.4 mg/kg and neostigmine 0.2 mg/kg given sc 30 min before hypoxia. Methyl atropine 1 mg/kg was given sc. 10 min. before physostigmine.
# Test drugs were dissolved in 0.9% saline, and injected sc. in the nip of the neck at a dose in accordance with body weight, 60-90 min. before hypoxia. The volume of injection was 0.2-0.3 mL per mouse (10 mL/kg). The initial dose was about one third of the reported LD50 for acetylcholine esterase inhibition. If no protection could be obtained, the dose was further increased to the nearest non-toxic dose. In case of protection, the dose was further reduced in an attempt to locate the “protective” dose range.
# [5] = read-out: AChE Inhibition In vitro IC50
# [6] = human erythrocyte AChE, at time of peak activity, read-out: AChE Inhibition In vitro IC50
# [7] = Mus musculus, 30 min before hypoxia, read-out: Protection (survival time)
# T3 sequence (P22303 32-617 isoform P22303-2 limits assumed): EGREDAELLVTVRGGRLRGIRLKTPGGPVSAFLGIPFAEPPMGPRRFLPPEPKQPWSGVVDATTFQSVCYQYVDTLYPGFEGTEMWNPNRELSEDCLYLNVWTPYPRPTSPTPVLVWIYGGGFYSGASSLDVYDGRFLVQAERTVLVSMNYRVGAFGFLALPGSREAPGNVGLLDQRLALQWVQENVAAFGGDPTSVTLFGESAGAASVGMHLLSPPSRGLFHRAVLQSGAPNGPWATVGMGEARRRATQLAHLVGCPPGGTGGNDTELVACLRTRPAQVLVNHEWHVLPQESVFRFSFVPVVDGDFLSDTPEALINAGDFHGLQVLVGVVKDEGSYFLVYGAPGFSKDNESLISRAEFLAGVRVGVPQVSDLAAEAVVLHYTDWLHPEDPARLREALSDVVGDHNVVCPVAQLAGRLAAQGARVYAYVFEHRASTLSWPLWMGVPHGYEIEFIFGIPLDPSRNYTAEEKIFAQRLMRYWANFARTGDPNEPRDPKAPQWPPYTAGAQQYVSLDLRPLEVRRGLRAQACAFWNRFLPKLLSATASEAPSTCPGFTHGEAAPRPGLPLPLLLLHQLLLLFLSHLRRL
structure (smiles),measurement,setting,value
"C#CCNC1CCc2ccc(OC(=O)N(C)C)cc21 (single isomer, unassigned) [Compound 54]",MAO-B Inhibition Ex vivo ED50,MAO-B,>100 µmol/kg
same,MAO-A Inhibition Ex vivo ED50,MAO-A [1],>100 µmol/kg
"C#CCNC1CCc2ccc(OC(=O)N(C)C)cc21 (single isomer, unassigned) [Compound 55]",MAO-B Inhibition Ex vivo ED50,MAO-B,>100 µmol/kg
same,MAO-A Inhibition Ex vivo ED50,MAO-A [1],>100 µmol/kg
CCCN(C)C(=O)Oc1ccc2c(c1)C(N)CC2 (stereo not drawn) [Compound 2],IC50,[2]; [5],7.3 µM
same,IC50,"MAO-A [3]; rat brain homogenate, read-out: MAO-A Inhibition In vitro IC50",32 µM
"CCN(C)C(=O)Oc1ccc2c(c1)C(N)CC2 (stereo not drawn) [Compound 3, 6-(N-Me,N-Et Carbamyloxy) aminoindan HCl]",AChE Inhibition Ex vivo ED50 (AC),whole brain AChE,46.3 µmol/kg
same,AChE Inhibition Time to peak activity t,"whole brain AChE; mouse, in vivo",60 to 90 min
same,AChE Inhibition Time to return to 50% of peak t,"whole brain AChE; mouse, in vivo",>180 min
same,IC50,"MAO-A [3]; MAO-A Inhibition In vitro IC50, rat brain homogenate",12.6 µM
same,Acute Toxicity LD50 (LD),mice,950 µmol/kg
CNC1CCc2cccc(OC(=O)N(C)C)c21 (stereo not drawn) [Compound 9],AChE Inhibition Ex vivo ED50 (AC),whole brain AChE,19 µmol/kg
same,AChE Inhibition Time to peak activity t,"whole brain AChE; mouse, in vivo",15 min
same,Acute Toxicity LD50 (LD),mice,93 µmol/kg
CN(C)C(=O)Oc1ccc2c(c1)C(N(C)C)CC2 (stereo not drawn) [Compound 12],AChE Inhibition Ex vivo ED50 (AC),whole brain AChE,8.0 µmol/kg
same,AChE Inhibition Time to peak activity t,"whole brain AChE; mouse, in vivo",15 min
same,Acute Toxicity LD50 (LD),mice,<20 µmol/kg
same,response vs control in vivo at 7 mg/kg,"[4]; Mus musculus, sc, read-out: Protection (survival time), 7 mg/kg sc, 60 min before hypoxia",248 ± 97%
same,response vs control in vivo at 10 mg/kg,"[4]; Mus musculus, sc, read-out: Protection (survival time), 10 mg/kg sc, 60 min before hypoxia",386 ± 238%
same,response vs control in vivo at 15 mg/kg,"[4]; Mus musculus, sc, read-out: Protection (survival time), 15 mg/kg sc, 60 min before hypoxia",649 ± 221%
same,response vs control in vivo at 20 mg/kg,"[4]; Mus musculus, sc, read-out: Protection (survival time), 20 mg/kg sc, 60 min before hypoxia",725 ± 128%
CN(C(=O)Oc1ccc2c(c1)C(N)CC2)C1CCCCC1 (stereo not drawn) [Compound 17],IC50,[2]; [5],4 µM
C#CCNC1CCc2cccc(OC(=O)N(C)CCC)c21 (stereo not drawn) [Compound 28],IC50,[2]; [6],100 µM
C#CCN(C)C1CCc2ccc(OC(=O)N(C)CC)cc21 (stereo not drawn) [Compound 30],IC50,[2]; [5],1300 µM
C#CCNC1CCc2ccc(OC(=O)NCC)cc21 (stereo not drawn) [Compound 56],IC50,[2]; [6],11.5 µM
same,AChE Inhibition Ex vivo ED50 (AC),whole brain AChE,180 µmol/kg
C#CCNC1CCc2ccc(OC(=O)N(C)CC)cc21 (stereo not drawn) [Compound 60],IC50,[2]; AChE Inhibition In vitro IC50,42 µM
C#CCNC1CCc2ccc(OC(=O)N(CC)CCCC)cc21 (stereo not drawn) [Compound 83],IC50,[2]; [6],80 µM
C#CCNC1CCc2ccc(OC(=O)N(CC)C3CCCCC3)cc21 (stereo not drawn) [Compound 85],IC50,[2]; [6],17 µM
same,AChE Inhibition Ex vivo ED50 (AC),whole brain AChE,>100 µmol/kg
C#CCNC1CCc2ccc(OC(=O)N(C)CCCC)cc21 (stereo not drawn) [Compound 86],IC50,[2]; [5],10.5 µM
C#CCNC1CCc2ccc(OC(=O)N(C)CCCC)cc21 (stereo not drawn) [Compound 87],IC50,[2]; [5],9.1 µM
CCCC(C)C1(CC)C(=O)N=C([O-])NC1=O.[Na+] (stereo not drawn) [Nembutal],Protection (survival time),"[4]; 40 mg/kg, 30 min before hypoxia",253 ± 200 % of control
"CN(C)C(=O)Oc1cccc([N+](C)(C)C)c1 [neostigmine, reference compound]",response vs control in vivo at 0.2 mg/kg,[4]; [7],141 ± 32%
"CNC(=O)Oc1ccc2c(c1)[C@]1(C)CCN(C)[C@@H]1N2C [physostigmine, reference compound]",response vs control in vivo at 0.2 mg/kg,[4]; [7],453 ± 222%
same,response vs control in vivo at 0.4 mg/kg,"[4]; Mus musculus, 0.4 mg/kg sc, 30 min before hypoxia, read-out: Protection (survival time)",552 ± 210%
